≈ marks a conversion by molar mass, not a printed value. Calls of active or inactive are those of the source. No cut-off for these calls is given here.
Legend:
[1] = Inhibition of beta-adrenergic receptor in isoproterenol-stimulated guinea pig atrial muscle; assay type: tissue-based, Cavia porcellus, Cardiac atrium
[2] = Myocardial depressant activity in guinea pig atrial muscle assessed as maximal non-depressant dose by measuring contractility; assay type: ADME, tissue-based, Cavia porcellus, Muscle tissue
[3] = molecular target: Adrenergic receptor beta (Rattus norvegicus, UniProt P18090+P10608+P26255); test: Inhibition of beta-adrenergic receptor in rat portal vein
[4] = Retention time of the compound; assay type: physicochemical
[5] = Myocardial depressant activity in guinea pig atrial muscle assessed as decrease in contractility at 0.31 x 10^-3 to 0.31 mg/ml; assay type: ADME, tissue-based, Cavia porcellus, Muscle tissue
[6] = Myocardial depressant activity in guinea pig atrial muscle assessed as decrease in contractility at 1.0 mg/ml; assay type: ADME, tissue-based, Cavia porcellus, Muscle tissue
[7] = species on record: Felis catus; test: Inhibition of beta-adrenergic receptor in cat papillary muscle; assay type: tissue-based
[8] = Myocardial depressant activity in cat papillary muscle assessed as decrease in contractile force at >0.31 mg/ml; assay type: ADME, tissue-based, Felis catus, Muscle tissue

| Compound | IC50 [1] | Activity [2] [µg/mL] | further results |
| --- | --- | --- | --- |
| CC(C)NCC(O)COc1cccc2c1CCC(O)C2.O=C(O)C(=O)O (stereo not given) | 0.002 µg/mL | 31 | – |
| CCCCNCC(O)COc1cccc2c1C[C@H](O)[C@H](O)C2 (stereo not given in full) | – | – | IC50 [3]: 0.44 µg/mL (≈ 1.42 µM) |
| COc1ccc(CCNCC(O)COc2ccc(O)c3c2CCCC3)cc1OC (stereo not given) | 0.024 µg/mL (≈ 0.0598 µM) | 3.1 | – |
| CN(CC(O)COc1cccc2c1C[C@H](O)[C@H](O)C2)C(C)(C)C (stereo not given in full) | Not Active | > 1000 | – |
| CC(C)NCC(O)COc1cccc2ccccc12 (stereo not given) [PROPRANOLOL] | – | 0.31 | – |
| COc1ccc(CCNCC(O)COc2cc(O)c(O)c3c2CCCC3)cc1OC.Cl (stereo not given) | 5.9 µg/mL | 3.1 | – |
| CC(C)NCC(O)COc1cc(O)c(O)c2c1CCCC2 (stereo not given) | 0.11 µg/mL (≈ 0.372 µM) | 100 | – |
| CC(C)(C)NCC(O)COc1cccc2c1C[C@H](O)[C@@H](O)C2 (relative stereo) | 0.015 µg/mL (≈ 0.0485 µM) | > 1000 | – |
| CC(C)NCC(O)COc1cccc2c1CC1OC1C2 (stereo not given) | 0.012 µg/mL (≈ 0.0433 µM) | 31 | – |
| Oc1cccc2c1C=CCC2 | – | – | Retention_time [4]: 35 min |
| CC(C)NCC(O)COc1cccc2c1C[C@@H](O)[C@@H](O)C2 (relative stereo) | 0.1 µg/mL (≈ 0.339 µM) | > 1000 | – |
| Cl.NCC(O)COc1cccc2c1C[C@H](O)[C@H](O)C2 (stereo not given in full) | 3.8 µg/mL | > 1000 | – |
| COc1ccccc1N1CCN(CC(O)COc2cccc3c2C[C@H](O)[C@H](O)C3)CC1 (stereo not given in full) | – | – | IC50 [3]: 0.46 µg/mL (≈ 1.07 µM) |
| CC(C)(C)NCC(O)COc1cccc2c1C[C@@H](O)[C@@H](O)C2 (relative stereo) | 0.03 µg/mL (≈ 0.097 µM) | > 1000 | – |
| OC(CNCCc1ccccc1)COc1cccc2c1C[C@H](O)[C@H](O)C2 (stereo not given in full) | 0.5 µg/mL (≈ 1.4 µM) | 100 | – |
| CCN(CC)CC(O)COc1cccc2c1C[C@H](O)[C@H](O)C2 (stereo not given in full) | 31 µg/mL (≈ 100 µM) | > 1000 | – |
| OC(COc1cccc2c1C[C@H](O)[C@H](O)C2)CN1CCN(c2ccccn2)CC1 (stereo not given in full) | Not Active | > 310 | – |
| Oc1cccc2c1CCCC2 | – | – | Retention_time [4]: 37.5 min |
| CC(C)(C)CC(C)(C)NCC(O)COc1cccc2c1C[C@H](O)[C@H](O)C2 (stereo not given in full) | – | 1 | IC50 [3]: 0.78 µg/mL (≈ 2.13 µM) |
| CC(C)(C)NCC(O)COc1cccc2c1CC(O)CC2 (stereo not given) | 0.0025 µg/mL (≈ 0.00852 µM) | 1 | – |
| CC(C)(C)NCC(O)COc1ccc2c(c1)C[C@@H](O)[C@H](O)C2 (relative stereo) | 6 µg/mL (≈ 19.4 µM) | 100 | – |
| CC(C)NCC(O)COc1cccc2c1CCCC2 (stereo not given) | 0.01 µg/mL (≈ 0.038 µM) | 1 | – |
| CC(C)(C)NCC(O)COc1ccc(O)c2c1CCCC2 (stereo not given) | 0.01 µg/mL (≈ 0.0341 µM) | 10 | – |
| CO[C@@H]1c2cccc(OCC(O)CNC(C)C)c2CC[C@H]1O.O=C(O)C(=O)O (relative stereo) | 0.05 µg/mL | 31 | – |
| CC(C)(C)NCC(O)COc1ccc2c(c1)C[C@@H](O)[C@@H](O)C2 (relative stereo) | 10 µg/mL (≈ 32.3 µM) | > 1000 | – |
| CC(C)(C)NCC(O)COc1ccc(O)c2c1C[C@@H]1OCO[C@@H]1C2 (stereo not given in full) | 0.3 µg/mL (≈ 0.889 µM) | 100 | – |
| Cl.NCC(O)COc1ccc(O)c2c1CCCC2 (stereo not given) | 0.15 µg/mL | 31 | – |

| Compound | IC50 [1] | Activity [2] [µg/mL] | further results |
| --- | --- | --- | --- |
| CC(C)(Cc1ccccc1)NCC(O)COc1cccc2c1C[C@H](O)[C@H](O)C2 (stereo not given in full) | – | 3.1 | IC50 [3]: 0.045 µg/mL (≈ 0.117 µM) |
| CC(C)(C)[N+](C)(C)CC(O)COc1cccc2c1C[C@H](O)[C@H](O)C2.[I-] (stereo not given in full) | 0.63 µg/mL | 1000 | – |
| OC(CNCc1ccccc1)COc1cccc2c1C[C@H](O)[C@H](O)C2 (stereo not given in full) | 1 µg/mL (≈ 2.91 µM) | 100 | – |
| CC(C)(C)N(CCNCC(O)COc1cccc2c1C[C@H](O)[C@H](O)C2)Cc1ccccc1 (stereo not given in full) | – | 31 | IC50 [3]: > 8 µg/mL |
| CC(C)(C)NCC(O)COc1ccc(O)c2c1C[C@@H](O)[C@@H](O)C2.Cl (relative stereo) | 0.086 µg/mL | – | inhibition (INH) [5]: 10%; Activity [6]: Non-toxic |
| CC(C)N(Cc1ccccc1)CC(O)COc1cccc2c1C[C@H](O)[C@H](O)C2 (stereo not given in full) | 80 µg/mL (≈ 208 µM) | 310 | – |
| CO[C@@H]1c2c(cccc2OCC(O)CNC(C)C)CC[C@@H]1O.O=C(O)C(=O)O (relative stereo) | 0.8 µg/mL | 10 | – |
| CCOc1ccccc1OCCNCC(O)COc1cccc2c1C[C@H](O)[C@H](O)C2 (stereo not given in full) | 0.31 µg/mL (≈ 0.743 µM) | 31 | – |
| CC(C)(C)NCC(O)COc1cccc2c1CC[C@@H](O)[C@@H]2O (relative stereo) | 0.02 µg/mL (≈ 0.0646 µM) | 310 | – |
| CC(C)NCC(O)COc1cccc2c1C[C@H](O)[C@@H](O)C2 (relative stereo) | 0.05 µg/mL (≈ 0.169 µM) | > 1000 | – |
| Oc1cccc2c1CCC=C2 | – | – | Retention_time [4]: 37 min |
| CC(C)NCC(O)COc1ccc(O)c2c1CCCC2 (stereo not given) | 0.004 µg/mL (≈ 0.0143 µM) | 10 | – |
| CC(C)NCC(O)COc1cccc2c1CC=CC2 (stereo not given) | 0.001 µg/mL (≈ 0.00383 µM) | 1 | – |
| CC(C)(C)NCC(O)COc1cccc2c1C[C@@H]1OCO[C@@H]1C2 (relative stereo) | 0.04 µg/mL (≈ 0.124 µM) | 3.1 | – |
| CC(C)(C)NCC(O)COc1ccc(I)c2c1C[C@H](O)[C@H](O)C2 (relative stereo) | – | – | inhibition [7]: Active; Activity [8]: Toxic |
| CC(C)(C)NCC(O)COc1cccc2c1CCC(O)C2 (stereo not given) | 0.001 µg/mL (≈ 0.00341 µM) | 10 | – |
| CO[C@H]1Cc2cccc(OCC(O)CNC(C)(C)C)c2C[C@H]1OC.Cl (relative stereo) | – | 100 | IC50 [3]: 0.051 µg/mL |
| COc1ccc(CCNCC(O)COc2cccc3c2C[C@H](O)[C@H](O)C3)cc1OC (stereo not given in full) | 0.07 µg/mL (≈ 0.168 µM) | > 1000 | – |
| CC(C)NCC(O)COc1cccc2c1CCC(=O)C2 (stereo not given) | 0.006 µg/mL (≈ 0.0216 µM) | 3.1 | – |
| CC(O)(CNC(C)(C)C)COc1cccc2c1C[C@H](O)[C@H](O)C2 (stereo not given in full) | 16 µg/mL (≈ 49.5 µM) | 31 | – |
| CC(C)(C)NCC(O)COc1cccc2c1CC=CC2 (stereo not given) | – | 0.3 | IC50 [3]: 0.0013 µg/mL (≈ 0.00472 µM) |
| CCN(CC(O)COc1cccc2c1C[C@H](O)[C@H](O)C2)C(C)(C)C (stereo not given in full) | – | > 1000 | – |
| CC(C)(C)NCC(O)COc1cccc2c1CCCC2=O (stereo not given) [BUNOLOL] | 0.006 µg/mL (≈ 0.0206 µM) | 1 | – |
| CC(C)(C)NCC(O)COc1cc(O)c(O)c2c1CCCC2 (stereo not given) | 0.1 µg/mL (≈ 0.323 µM) | 10 | – |
| C=CCc1ccc(OCCNCC(O)COc2cccc3c2C[C@H](O)[C@H](O)C3)c(OC)c1 (stereo not given in full) | – | 3.1 | IC50 [3]: 1.5 µg/mL (≈ 3.38 µM) |
| CC(C)NCC(O)COc1cccc2c1CC(O)CC2 (stereo not given) | 0.005 µg/mL (≈ 0.0179 µM) | 3.1 | – |

— ChEMBL document CHEMBL3243942, “Nondepressant beta-adrenergic blocking agents. 1. Substituted 3-amino-1-(5,6,7,8-tetrahydro-1-naphthoxy)-2-propanols” (J Med Chem, 1978)
